Assay results published in paper PMC9365363 (Clinical Cancer Research, 2022).
Read-outs that look alike come from different tables or passages of the source.

Experiments:
GBM cell lines = test: cells; format: cell-based; conditions: Homo sapiens, 72 h
[1] = system: tyrosine phosphoproteome of GBM tumors; format: in vivo, human; conditions: 4 sunitinib-treated versus 7 control GBM tumors, cut-off P < 0.05
PDGFRA = PDGFRA (Homo sapiens, UniProt P16234); format: in vivo; conditions: known sunitinib target; 4 sunitinib-treated, 7 control tumors
Chain of PDGFRA (P16234 24-1089): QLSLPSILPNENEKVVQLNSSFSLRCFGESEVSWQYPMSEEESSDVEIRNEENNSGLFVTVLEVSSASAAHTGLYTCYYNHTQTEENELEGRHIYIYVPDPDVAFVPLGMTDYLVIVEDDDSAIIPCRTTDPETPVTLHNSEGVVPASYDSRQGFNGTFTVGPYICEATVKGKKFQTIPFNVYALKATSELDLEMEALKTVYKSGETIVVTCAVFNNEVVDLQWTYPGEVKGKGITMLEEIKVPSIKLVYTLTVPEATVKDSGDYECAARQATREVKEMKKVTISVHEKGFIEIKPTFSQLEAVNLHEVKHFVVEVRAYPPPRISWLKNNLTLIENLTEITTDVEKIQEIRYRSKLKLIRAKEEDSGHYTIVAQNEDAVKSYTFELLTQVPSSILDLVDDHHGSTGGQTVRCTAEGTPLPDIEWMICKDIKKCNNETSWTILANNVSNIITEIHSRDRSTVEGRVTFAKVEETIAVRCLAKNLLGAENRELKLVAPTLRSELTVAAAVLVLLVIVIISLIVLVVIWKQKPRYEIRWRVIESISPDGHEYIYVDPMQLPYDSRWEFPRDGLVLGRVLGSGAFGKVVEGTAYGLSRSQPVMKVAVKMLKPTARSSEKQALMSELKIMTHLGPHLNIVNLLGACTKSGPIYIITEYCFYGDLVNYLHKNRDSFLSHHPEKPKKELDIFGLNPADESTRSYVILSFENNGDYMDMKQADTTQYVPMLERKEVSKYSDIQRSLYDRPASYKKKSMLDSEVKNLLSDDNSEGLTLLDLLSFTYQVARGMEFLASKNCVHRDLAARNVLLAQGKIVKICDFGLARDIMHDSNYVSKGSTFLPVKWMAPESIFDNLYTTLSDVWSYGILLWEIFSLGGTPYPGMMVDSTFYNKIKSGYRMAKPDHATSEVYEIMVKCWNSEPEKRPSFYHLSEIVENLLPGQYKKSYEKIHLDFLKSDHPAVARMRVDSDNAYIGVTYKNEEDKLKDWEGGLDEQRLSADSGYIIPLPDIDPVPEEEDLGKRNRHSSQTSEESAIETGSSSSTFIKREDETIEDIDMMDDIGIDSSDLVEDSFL

PDGFRB = PDGFRB (Homo sapiens, UniProt P09619); format: in vivo; conditions: known sunitinib target; 4 sunitinib-treated, 7 control tumors
Chain of PDGFRB (P09619 33-1106): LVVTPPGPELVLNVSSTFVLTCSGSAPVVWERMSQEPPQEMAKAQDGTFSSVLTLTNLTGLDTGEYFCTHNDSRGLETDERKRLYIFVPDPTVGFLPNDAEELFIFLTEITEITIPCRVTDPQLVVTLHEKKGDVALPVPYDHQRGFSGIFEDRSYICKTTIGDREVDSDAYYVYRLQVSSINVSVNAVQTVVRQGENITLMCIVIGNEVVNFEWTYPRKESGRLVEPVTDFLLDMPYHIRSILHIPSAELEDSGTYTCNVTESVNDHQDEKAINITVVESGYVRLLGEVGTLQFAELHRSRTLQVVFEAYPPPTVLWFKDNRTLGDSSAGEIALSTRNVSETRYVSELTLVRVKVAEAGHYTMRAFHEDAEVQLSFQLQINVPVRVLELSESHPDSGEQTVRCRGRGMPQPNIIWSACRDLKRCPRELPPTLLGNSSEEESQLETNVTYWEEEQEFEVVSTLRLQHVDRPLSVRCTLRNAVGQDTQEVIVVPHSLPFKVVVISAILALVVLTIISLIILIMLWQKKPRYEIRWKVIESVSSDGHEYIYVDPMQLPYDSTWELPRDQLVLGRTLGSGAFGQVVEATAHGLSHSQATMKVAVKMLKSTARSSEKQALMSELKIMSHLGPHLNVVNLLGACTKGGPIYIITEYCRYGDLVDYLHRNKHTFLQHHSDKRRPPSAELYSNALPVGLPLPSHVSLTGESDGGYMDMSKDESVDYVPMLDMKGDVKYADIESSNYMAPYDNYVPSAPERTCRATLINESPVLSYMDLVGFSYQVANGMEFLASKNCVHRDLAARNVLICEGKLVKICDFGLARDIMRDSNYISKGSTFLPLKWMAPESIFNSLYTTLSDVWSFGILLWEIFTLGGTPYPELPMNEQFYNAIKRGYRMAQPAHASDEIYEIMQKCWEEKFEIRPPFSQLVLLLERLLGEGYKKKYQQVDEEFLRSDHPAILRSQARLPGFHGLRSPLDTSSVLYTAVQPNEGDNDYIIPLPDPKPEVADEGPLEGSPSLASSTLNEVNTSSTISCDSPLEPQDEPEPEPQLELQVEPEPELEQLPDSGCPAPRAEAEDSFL

PTM signatures = system: PTM signatures; design: species or system human; conditions: in vivo
[2] = format: in vivo, human; conditions: all patients, last dose in the morning on the day of surgery
[3] = 5 patients with GBM
398 cancer cell lines = conditions: read-out: Geometric mean of the IC50, ref https://www.cancerrxgene.org/compound/Sunitinib/5/overview/ic50; cited from earlier work
recurrent GBM = conditions: sunitinib-treated patients with a recurrent GBM; cited from earlier work
clinical = conditions: human, in vivo, po, 50 mg once daily

CCN(CC)CCNC(=O)c1c(C)[nH]c(/C=C2\C(=O)Nc3ccc(F)cc32)c1C [sunitinib]
IC50 (GBM cell lines; read-out: Median IC50 in GBM cell lines): 5.4 µM
IC50 (GBM cell lines; read-out: Range of IC50 in GBM cell lines): 3 to 8.5 µM
Number of significantly downregulated phosphopeptides [1]: 23
Number of significantly upregulated phosphopeptides [1]: 108
Kinase activity of PDGFRA (INKA), sunitinib-treated versus control (PDGFRA): low and not significantly different between the groups
Kinase activity of PDGFRB (INKA), sunitinib-treated versus control (PDGFRB): low and not significantly different between the groups
Moderately significant enriched signatures (PTM-SEA) (PTM signatures): Two moderately significant NetPath derived signatures
Strongly significantly enriched phosphosite signatures (PTM-SEA) (PTM signatures): three strongly significantly enriched phosphosite signatures
Perioperative complications of tumor resection after preoperative treatment [2]: without perioperative complications
Relation between sunitinib tumor accumulation and use of dexamethasone and anticonvulsants [3]: No relation
IC50 (398 cancer cell lines): 11.6 µM
Tumor response and clinical benefit (recurrent GBM): no tumor response nor clinical benefit
Kp (clinical): 10
concentration at 11 days (clinical): 111 nM
concentration at 12 days (clinical): 255 nM
concentration at 13 days (clinical): 479 nM
concentration at 14 days (clinical): 105 nM
concentration at 18 days (clinical): 194 nM
